# Measurements taken from patent publication US10765682B2 (LAM Therapeutics, Inc., priority 2014, dated 2020).
# Test system: Yulac614 melanoma cells
# Test: Yulac614 cell viability (CellTiter-Glo), drug library screen and 10 point validation with/without vemurafenib
# Procedure: Duplicate drug-spotted plates were prepared and to them were added Yulac614 cells which were pre-treated with either DMSO (0.01% final) or vemurafenib (6 μM final). The Yulac614 cells were grown in OptiMEM (Life Technologies) containing 5% FBS (Sigma Aldrich F2442-500ML, Lot 12D370) Penicillin/Streptomycin (100×) (CellGro Ref 30-002). 30 uL of cells were dispensed per well using a Multidrop Combi (Thermo Fisher Scientific) to give a final cell density of 2,000 cells per well.
# Plates were incubated for 72 h at 37° C. under an atmosphere of 5% CO2 in a humidified incubator. Cell viability was determined with CellTiter-Glo® luminescence assay (Promega) as per the manufacturer's instructions. Viability was expressed as a percentage of control (DMSO) cells. The viability of the library drug alone was compared to the library drug+vemurafenib and significant combinations were identified.
# 72 hours after compound addition relative cell viability was determined by CellTiter-Glo® luminescence assay (Promega) as per the manufacturer's instructions, and values were expressed as a percentage relative to vehicle (DMSO) treated control cells (set to 100%).
structure (smiles),measurement,value
"Cc1cccc(/C=N/Nc2cc(N3CCOCC3)nc(OCCc3ccccn3)n2)c1 [apilimod, (E)-4-(6-(2-(3-methylbenzylidene)hydrazinyl)-2-(2-(pyridin-2-yl)ethoxy)pyrimidin-4-yl)morpholine]",IC20,500 nM
